This is an account of results in patent publication US20130122113A1, “ANTITUMORAL COMBINATION COMPRISING OMBRABULIN, A TAXANE DERIVATIVE AND A PLATINUM DERIVATIVE” (SANOFI, priority 2010, published 2013).

Data set [1] in a line: clinical. As to the method: Blood samples for pharmacokinetic analysis were obtained from all patients on Day 1, 2 and 3 at Cycle 1.
A series of 2-mL blood samples were collected in heparinized (lithium heparinate) tubes as follows: • immediately prior to the end of infusion; • at 5, 10, 25, 45 and 60 minutes post infusion; • at 2, 4, 6, 8, 10 and 24 hours post infusion (i.e a total of 24 mL of blood).

For data set [2] the following is noted: cited from earlier work.
Data set [3] in a line: Phase I dose escalation study of ombrabulin with platinum salts and taxanes every 3 weeks: DLT, MAD, RD, TEAE. Format: in vivo, patients. The protocol: Dose Limiting Toxicity (DLT) at cycle 1.
Two groups of patients will be treated: one with docetaxel-cisplatin doublet (group 1) and the second with paclitaxel-carboplatin doublet (group 2), both in combination with ombrabulin.
The combination will be started with the following schedule (schedule A) for group 1:
Day 1: ombrabulin as a 30 minutes i.v. infusion immediately followed by 120 minutes i.v. infusion of cisplatin, and
Day 2: docetaxel administered as a 60 minutes i.v. infusion 24 hours apart ombrabulin infusion end and for the first 4 dose levels (I, II, III, IV).
Cohorts of 3 or 6 patients will receive escalating doses of ombrabulin (15.5, 20 and 25 mg/m^2) with a fixed dose of cisplatin at 75 mg/m^2 on Day 1, followed by docetaxel on Day 2, given either at 60 mg/m^2 for the ombrabulin doses of 15.5 and 20 mg/m^2 or at 75 mg/m^2 for the ombrabulin doses of 20 and 25 mg/m^2.
Taking into consideration the recommended dose of the combination ombrabulin and cisplatin administered the same day (25 mg/m^2 and 75 mg/m^2 respectively) every 3 weeks, after dose level IV, even if MAD not reached at this dose level, dose escalation of ombrabulin will be stopped and the combination will be administered with the following schedule (schedule B) in the 2 groups:
Day 1: ombrabulin as a 30 minutes i.v. infusion, and
Group 1: docetaxel administered as a 60 minutes i.v. infusion followed by cisplatin as a 120 minutes i.v. infusion, 24 hours apart ombrabulin infusion end.
Group 2: paclitaxel administered as a 180 minutes i.v. infusion followed by carboplatin as a 30 minutes i.v. infusion, 24 hours apart ombrabulin infusion end.
Cohorts of 3 or 6 patients will be screened and treated at each dose level. When the first three patients of a cohort have completed the first cycle, i.e. should have received at least one treatment course and should have been observed for acute toxicity for at least a 3-week follow-up period (or shorter period provided that a DLT has been observed), dose escalation strategy will be as follows: […]

Where [4] appears, read: ombrabulin 15.5 mg/m^2, 3 patients, cycle 1, mean (CV).
Setting [5] is: ombrabulin 20 mg/m^2, 26 patients, cycle 1, mean (CV).
Setting [6] is: ombrabulin 25 mg/m^2, 12 patients, cycle 1, mean (CV).
[7] abbreviates: ombrabulin 30 mg/m^2, 6 patients, cycle 1, mean (CV).
The mark [8] stands for this setting: ombrabulin 35 mg/m^2, 5 patients, cycle 1, mean (CV).
Setting [9] is: ombrabulin, Overall (15.5-35 mg/m^2), 52 patients, cycle 1, mean (CV).
Setting [10] is: ombrabulin, Overall (15.5-35 mg/m^2), 52 patients, cycle 1, mean (CV), listed as Ombrabulin.

For the compound `COc1ccc(/C=C\c2cc(OC)c(OC)c(OC)c2)cc1N` [ombrabulin metabolite, (Z)-1-(3-amino-4-methoxyphenyl)-2-(3,4,5-trimethoxyphenyl)ethene], in data set [1] (human, in vivo), the “Metabolite exposure relative to ombrabulin” value is “about 2 fold”.
With `COc1ccc(/C=C\c2cc(OC)c(OC)c(OC)c2)cc1NC(=O)[C@@H](N)CO` [ombrabulin, (Z)-N-[2-methoxy-5-[2-(3,4,5-trimethoxyphenyl)vinyl]phenyl]-L-serinamide], the “recommended dose in monotherapy” value in data set [2] (ombrabulin monotherapy) is reported as 50 mg/m^2. In data set [2] (with cisplatin 75 mg/m^2 administered the same day, every 3 weeks), the “recommended dose of ombrabulin in combination with cisplatin” value is 25 mg/m^2. Further, the “recommended dose of ombrabulin in bi-therapy with docetaxel” value in data set [2] (with docetaxel 75 mg/m^2, on-going phase I trial) is on record as 35 mg/m^2. Besides, the maximum administered dose is recorded as 35 mg/m^2 in data set [3] (Cohort II: Ob d1, C75/D75 d2, 19 pts); 35 mg/m^2 in data set [3] (Cohort III: Ob d1, CbAUC5/P175 d2, 18 pts); 35 mg/m^2 in data set [3] (Cohort IV: Ob d1, CbAUC6/P200 d2, 19 pts). Further, the AUC worked out at 276 ng·h/mL in data set [1] (human, in vivo, 15.5 mg/m2); 353 ng·h/mL in data set [1] (human, in vivo, 20 mg/m2); 383 ng·h/mL in data set [1] (human, in vivo, 25 mg/m2); 510 ng·h/mL in data set [1] (human, in vivo, 30 mg/m2); 493 ng·h/mL in data set [1] (human, in vivo, 35 mg/m2). Further, the exposure AUC(0-t) in data set [1] (human, in vivo, 15.5 mg/m2) stood at 274 ng·h/mL; in data set [1] (human, in vivo, 20 mg/m2), 351 ng·h/mL; in data set [1] (human, in vivo, 25 mg/m2), 381 ng·h/mL; in data set [1] (human, in vivo, 30 mg/m2) it was 508 ng·h/mL; in data set [1] (human, in vivo, 35 mg/m2) it was 491 ng·h/mL. Further, the highest concentration (Cmax) amounted to 712 ng/mL in data set [1] (human, in vivo, 15.5 mg/m2); 861 ng/mL in data set [1] (human, in vivo, 20 mg/m2); 973 ng/mL in data set [1] (human, in vivo, 25 mg/m2); 1170 ng/mL in data set [1] (human, in vivo, 30 mg/m2); 1270 ng/mL in data set [1] (human, in vivo, 35 mg/m2). The Tmax is 28.8 min in data set [1] (human, in vivo, 15.5 mg/m2); 28.8 min in data set [1] (human, in vivo, 20 mg/m2); 29.4 min in data set [1] (human, in vivo, 25 mg/m2); 32.4 min in data set [1] (human, in vivo, 30 mg/m2); 30 min in data set [1] (human, in vivo, 35 mg/m2). In addition, the half-life in data set [1] (human, in vivo, t1/2Z (terminal elimination half-life), ombrabulin, Overall (15.5-35 mg/m^2), 52 patients, cycle 1, mean (CV)) turned out to be 17 min. In addition, the “conversion to its active metabolite” value in data set [1] (in patients after i.v. infusion) is on record as “rapidly converted”. Moreover, the Vss in data set [1] (setting [4]) is 18.2 (32) L/m^2; in data set [1] (setting [5]), 22.0 (57) L/m^2; in data set [1] (setting [6]), 27.2 (76) L/m^2; in data set [1] (setting [7]), 24.3 (37) L/m^2; in data set [1] (setting [8]) it was 32.8 (78) L/m^2; in data set [1] (setting [9]), 25.0 (33) L/m^2. In addition, the Vss in data set [1] (setting [10]) was 25.0 L/m^2. The t1/2Z is given as 20.9 (76) min in data set [1] (setting [4]); 17.7 (50) min in data set [1] (setting [5]); 15.3 (37) min in data set [1] (setting [6]); 18.5 (65) min in data set [1] (setting [7]); 14.3 (28) min in data set [1] (setting [8]). For the same compound, the CL is reported as 64.6 (42) L/h/m^2 in data set [1] (setting [5]); 80.1 (49) L/h/m^2 in data set [1] (setting [6]); 63.4 (33) L/h/m^2 in data set [1] (setting [7]); 95.7 (63) L/h/m^2 in data set [1] (setting [8]); 72.9 (23) L/h/m^2 in data set [1] (setting [9]); 72.9 L/h/m^2 in data set [1] (setting [10]). Also, in data set [1] (setting [9]), the “t1/2Z (terminal elimination half-life)” value was 17.3 (15) min.

The AUC is concentration integrated over time. Broadly, the AUC(0-t) is the area under the concentration-time curve up to a stated or last time point. Low readings indicate less exposure, high ones more exposure. As usually defined, the Cmax is the highest concentration seen after dosing. The term Tmax denotes the time at which the peak concentration occurs. Usually half-life stands for the time needed for the level to fall by half in the phase considered. Read a high half-life as slow decline.
